“Also recorded” adds a separate entry of the source.
Legend:
MES-SA = assay: Tumor cell growth inhibition, MTS assay, MES-SA; assay type: cell-based; settings: Homo sapiens, 72 hours incubation
Protocol: (§1) The in vitro activity of the compounds was assessed in a selected set of human cancer cell lines.
(§2) MES-SA, a model of uterine sarcoma, is sensitive to a number of chemotherapeutic agents, including Doxorubicin, Dactinomycin, Mitomycin C, paclitaxel and Bleomycin, but resistant to Vinblastine and Cisplatin. MES-SA/DX5 was established in the presence of increasing concentrations of Doxorubicin. […] Both MES-SA and MES-SA/Dx5 were purchased from ATCC (ATCC CRL-1976 and ATCC CRL-1977, respectively).
(§3) All experiments were performed on exponentially growing cell culture. Cell densities were 2.5×10^4 cells/ml in all experiment except special.

HL-60 = assay: Tumor cell growth inhibition, MTS assay, HL-60; assay type: cell-based; settings: Homo sapiens, 72 hours incubation
Protocol: (§4) The in vitro activity of the compounds was assessed in a selected set of human cancer cell lines. Three pairs of tumor cell lines (non-resistant/resistant) were used to identify novel potent antitumor compounds which are capable of overcoming multi-drug resistance.
(§5) HL-60, a model of myeloid leukemia, was obtained from ATCC (ATCC CCL-240); and HL60/TX1000 was isolated in vitro by subculturing HL-60 in progressively higher concentration of paclitaxel. HL-60/TX1000 cells over-express mdr-1 mRNA and p-glycoprotein (PCP), as determined by western blot and immunofluorescence labeling with antiPGP antibodies. The cells are cross-resistant to paclitaxel, Vincristine, Adriamycin, Etoposide and Doxorubicin.
as §3

Bowes = assay: Tumor cell growth inhibition, MTS assay, Bowes; assay type: cell-based; settings: Homo sapiens, 72 hours incubation
Protocol: as §4
(§6) Bowes is a melanoma cell line; and Bowes/OV2 is a Vincristine resistant Bowes melanoma cell line.
as §3

[1] = system: MDR cell lines (MES-SA/DX5, HL-60/TX1000, Bowes/OV2); assay: Tumor cell growth inhibition, summary over MDR cell lines; assay type: cell-based, human; settings: for IC50: Homo sapiens, read-out: IC50 against the MDR cell lines
Protocol: as §4, §5, §2, §6, §3

CEM (T-cell leukemia) = assay: cells; assay type: cell-based; settings: Homo sapiens, 72 h, read-out: In vitro Cytotoxicity IC50, CEM
Protocol: (§7) All experiments were performed on exponentially growing cell culture.

39SK normal fibroblast = assay: In vitro cytotoxicity, MTS assay, 39SK; assay type: cell-based; settings: Human normal fibroblast, 72 hours
Protocol: as §7

[2] = system: normal cancer cell lines (MES-SA, HL-60, Bowes); assay: Tumor cell growth inhibition, summary over normal cancer cell lines; assay type: cell-based; settings: Homo sapiens, read-out: IC50 against normal cancer cell lines
Protocol: as §4, §5, §2, §6, §3

MES-SA/DX5 = assay: Tumor cell growth inhibition, MTS assay, MES-SA/DX5; assay type: cell-based, human; settings: protocol of Example 15, Table 2
Protocol: as §1, §2, §3

[3] = system: multi-drug resistant human uterine sarcoma MES-SA/DX5 tumors; assay: MES-SA/DX5 tumors in nude mice; assay type: in vivo; settings: 15 mg/kg intravenously, 3 times a week for 3 weeks
Protocol: A supplemented media was prepared from 50% DMEM/Dulbecco Modified Eagle Medium (High Glucose), 50% RPMI 1640, 10% FBS/Fetal Bovine Serum (Hybridoma Tested; Sterile Filtered), 1% L-Glutamine, 1% Penicillin-Streptomycin, 1% MEM Sodium Pyruvate and 1% MEM Non-Essential Amino Acids. FBS was obtained from Sigma Chemical Co. and other ingredients were obtained from Invitrogen Life Technologies, USA). The supplemental media was warmed to 37° C. and 50 ml of media was added to a 175 cm^2 tissue culture flask.
The cells used in the assay were multi-drug resistant MES-SA/DX-5 Human Uterine Sarcoma cells from the American Type Culture Collection. 1 vial of MES-SA/DX-5 cells from the liquid nitrogen frozen cell stock was removed. The frozen vial of cells was immediately placed into a 37° C. water bath and gently swirled until thawed. The freeze-vial was wiped with 70% ethanol and cells were immediately pipetted into the 175 cm^2 tissue culture flask containing supplemented media. […]
The flask was washed with 10 ml of sterile room temperature phosphate buffered saline (PBS). […] The supernatant was aspirated and the cell pellet was resuspended in 10 ml of supplemented media and the cells were counted. […]
The above procedure for trypsinizing and centrifuging the cells were followed. The supernatant was aspirated and the cell pellet was resuspended in 10 ml of sterile PBS and the cells were counted. […]

IC50 (MES-SA) [µM] | IC50 (HL-60) [µM] | IC50 (Bowes) [µM] | IC50 compared with Compound (1), same multi-drug resistant cell lines [1] | IC50 [1] [nM] | SMILES | IC50 (CEM (T-cell leukemia)) [nM] | further results
0.004 | 0.002 | 0.002 | two to three orders of magnitude larger | 5000 | CC[C@]1(O)C[C@H]2CN(CCc3c([nH]c4ccccc34)[C@@](C(=O)OC)(c3cc4c(cc3OC)N(C=O)[C@H]3[C@@](O)(C(=O)OC)[C@H](OC(C)=O)[C@]5(CC)C=CCN6CC[C@]43[C@@H]65)C2)C1 [Vincristine] | 5 | –
– | – | – | – | – | CN(NC(=O)CC(=O)NN(C)C(=S)c1ccccc1)C(=S)c1ccccc1 [Compound (1)] | – | IC50 (39SK normal fibroblast): > 10000 nM
0.005 | 0.002 | 0.005 | two to three orders of magnitude larger | 5000 | CC(=O)O[C@H]1C(=O)[C@@]2(C)[C@H]([C@H](OC(=O)c3ccccc3)[C@]3(O)C[C@H](OC(=O)[C@H](O)[C@@H](NC(=O)c4ccccc4)c4ccccc4)C(C)=C1C3(C)C)[C@]1(OC(C)=O)CO[C@@H]1C[C@@H]2O [Paclitaxel] | 10 | IC50 [2]: 2 to 5 nM
– | – | – | – | – | CC(C(=O)NN1Cc2ccccc2C1=S)C(=O)NN1Cc2ccccc2C1=S [Compound (13)] | – | IC50 (MES-SA/DX5): 0.05 µM
– | – | – | – | – | CCN(NC(=O)C(C)C(=O)NN(CC)C(=S)c1ccccc1)C(=S)c1ccccc1 [Compound (16)] | – | IC50 (MES-SA/DX5; Homo sapiens, MES-SA/Dx5): 0.05 µM; toxicity such as body weight suppression and behavior changes [3]: without any obvious toxicity; tumor growth / tumor size of MES-SA/DX5 compared with vehicle ([3]; FIG. 2): significantly reduced; also recorded: significantly inhibits the tumor growth

— US7763658B2, “Treatment for cancers” (Synta Pharmaceuticals Corp., priority 2003, dated 2010)
